This is an account of results in patent US7807676B2, “Diketo-Piperazine and Piperidine derivatives as antiviral agents” (priority 2006, dated 2010).

Structures are written as SMILES. Bounds are passed on as bounds.

In the experiment the test system is HIV-1 single-round infectious reporter virus. Description: Single-round infectious HIV-1 luciferase reporter virus infection of HeLa CD4 cells (antiviral EC50). To be noted: Human immunodeficiency virus 1, HeLa, read-out: EC50 Group from Table 3. It counts as cell-based. A digest of the protocol:
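Compound (≤10 μM final, 10 concentrations) was added to HeLa CD4 cells together with luciferase-reporter HIV-1 pseudovirus (nef replaced by luciferase, envelope supplied in trans) at MOI ~0.01. Cells were lysed 72 h post-infection at 37 °C for luminescence; percent inhibition versus untreated infection, fitted four-parameter logistic for EC50.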

On to `O=C(NCCN1CCOCC1)c1cc(-c2ncc(F)c3c(C(=O)C(=O)N4CCN(c5c[nH]nc5-c5ccccc5)CC4)c[nH]c23)n[nH]1` [B-54], for which the EC50 is less than 500 nM.

Regarding `O=C(NCCO)c1ncc(F)c2c(C(=O)C(=O)N3CCN(c4nnnn4-c4ccccc4)CC3)c[nH]c12` [B-55], the EC50 is less than 500 nM.

As for `CN(C)c1cnc(C(=O)NCCO)c2[nH]cc(C(=O)C(=O)N3CCN(c4nnnn4-c4ccccc4)CC3)c12` [B-56], the EC50 is less than 500 nM.

For the compound `CCOC(=O)c1ncc(F)c2c(C(=O)C(=O)N3CCN(c4nnnn4-c4ccccc4)CC3)c[nH]c12` [B-57], the EC50 was less than 500 nM.

For the compound `COc1cnc(-c2csc(C3OCCO3)n2)c2[nH]cc(C(=O)C(=O)N3CCN(c4nnnn4-c4ccccc4)CC3)c12` [B-58], the EC50 is less than 500 nM.

Turning to `CNCc1nc(-c2ncc(OC)c3c(C(=O)C(=O)N4CCN(c5nnnn5-c5ccccc5)CC4)c[nH]c23)cs1` [B-59], the EC50 was less than 500 nM.

As for `CCOC(=O)c1cc(-c2ncc(F)c3c(C(=O)C(=O)N4CCN(c5nnnn5-c5ccccc5)CC4)cn(C)c23)nn1C` [B-60], the EC50 was less than 500 nM.

Take `COc1cnc(-c2cncnc2)c2[nH]cc(C(=O)C(=O)N3CCN(c4nnnn4-c4ccccc4)CC3)c12` [B-63]: the EC50 is less than 500 nM.

Regarding `COc1cnc(C(=O)NCCO)c2[nH]cc(C(=O)C(=O)N3CCN(c4nnnn4-c4ccccc4)CC3)c12` [B-64], the EC50 was less than 500 nM.

`CNC(=O)c1ncc(OC)c2c(C(=O)C(=O)N3CCN(c4nnnn4-c4ccccc4)CC3)c[nH]c12` [B-65]: the EC50 was less than 500 nM.

For the compound `COc1cnc(C(=O)NC2CC2)c2[nH]cc(C(=O)C(=O)N3CCN(c4nnnn4-c4ccccn4)CC3)c12` [B-66], the EC50 was less than 500 nM.

Consider `COc1cnc(-c2cc(CO)[nH]n2)c2[nH]cc(C(=O)C(=O)N3CCN(c4nnnn4-c4ccccn4)CC3)c12` [B-67], for which the EC50 was less than 500 nM.

In the case of `COc1cnc(-c2cc(C(C)(C)O)[nH]n2)c2[nH]cc(C(=O)C(=O)N3CCN(c4nnnn4-c4ccccn4)CC3)c12` [B-68], the EC50 was less than 500 nM.

For the compound `COc1nc(-c2ncc(OC)c3c(C(=O)C(=O)N4CCN(c5nnnn5-c5ccccn5)CC4)c[nH]c23)cs1` [B-69], the EC50 is less than 500 nM.

Turning to `COc1cnc(-c2cscn2)c2[nH]cc(C(=O)C(=O)N3CCN(c4nnnn4-c4ccccn4)CC3)c12` [B-70], the EC50 is less than 500 nM.

`COc1cnc(-c2cncs2)c2[nH]cc(C(=O)C(=O)N3CCN(c4nnnn4-c4ccccn4)CC3)c12` [B-71]: the EC50 was less than 500 nM.

Turning to `COc1cnc(-c2cc[nH]n2)c2[nH]cc(C(=O)C(=O)N3CCN(c4nnnn4-c4ccccn4)CC3)c12` [B-72], the EC50 is less than 500 nM.

As for `COc1cnc(-c2ccn(C)n2)c2[nH]cc(C(=O)C(=O)N3CCN(c4nnnn4-c4ccccn4)CC3)c12` [B-73], the EC50 was less than 500 nM.

For `COc1cnc(-c2ccn(CC(=O)O)n2)c2c1c(C(=O)C(=O)N1CCN(c3nnnn3-c3ccccn3)CC1)cn2CC(=O)O` [B-74], the EC50 is more than 500 nM.

Regarding `COc1cnc(-c2ccn(CC(=O)O)n2)c2[nH]cc(C(=O)C(=O)N3CCN(c4nnnn4-c4ccccn4)CC3)c12` [B-75], the EC50 is less than 500 nM.

Regarding `COc1cnc(-c2ccn(CC(=O)N(C)C)n2)c2[nH]cc(C(=O)C(=O)N3CCN(c4nnnn4-c4ccccn4)CC3)c12` [B-76], the concentration for a half-maximal effect (EC50) was more than 500 nM.

Turning to `CNC(=O)Cn1ccc(-c2ncc(OC)c3c(C(=O)C(=O)N4CCN(c5nnnn5-c5ccccn5)CC4)c[nH]c23)n1` [B-77], the EC50 was less than 500 nM.

Consider `CCC(O)(CC)c1cc(-c2ncc(OC)c3c(C(=O)C(=O)N4CCN(c5nnnn5-c5ccccn5)CC4)c[nH]c23)n[nH]1` [B-78], for which the EC50 was less than 500 nM.

As for `COc1cnc(-n2cc(Cl)cn2)c2[nH]cc(C(=O)C(=O)N3CCN(c4nnnn4-c4ccccn4)CC3)c12` [B-79], the EC50 is less than 500 nM.

With `COc1cnc(-n2cnc(NC(=O)C(C)(C)C)n2)c2[nH]cc(C(=O)C(=O)N3CCN(c4nnnn4-c4ccccn4)CC3)c12` [B-80], the EC50 was less than 500 nM.

Consider `COc1cnc(-c2ccc(N3CCN(C(=O)OC(C)(C)C)CC3)cc2)c2[nH]cc(C(=O)C(=O)N3CCN(c4nnnn4-c4ccccn4)CC3)c12` [B-81], for which the EC50 was less than 500 nM.

Regarding `COc1cnc(-c2ccc(N3CCNCC3)cc2)c2[nH]cc(C(=O)C(=O)N3CCN(c4nnnn4-c4ccccn4)CC3)c12` [B-82], the EC50 is less than 500 nM.

`COc1cnc(-c2ccc(N3CCN(C(=O)OC(C)C)CC3)cc2)c2[nH]cc(C(=O)C(=O)N3CCN(c4nnnn4-c4ccccn4)CC3)c12` [B-83]: the EC50 was less than 500 nM.

Regarding `COc1cnc(-c2ccc(N3CCN(C(=O)OCC(C)C)CC3)cc2)c2[nH]cc(C(=O)C(=O)N3CCN(c4nnnn4-c4ccccn4)CC3)c12` [B-84], the EC50 is less than 500 nM.

As for `CCOC(=O)N1CCN(c2ccc(-c3ncc(OC)c4c(C(=O)C(=O)N5CCN(c6nnnn6-c6ccccn6)CC5)c[nH]c34)cc2)CC1` [B-85], the EC50 was less than 500 nM.

Regarding `COc1cnc(-c2ccc(N3CCN(C(=O)NC(C)(C)C)CC3)cc2)c2[nH]cc(C(=O)C(=O)N3CCN(c4nnnn4-c4ccccn4)CC3)c12` [B-86], the EC50 is less than 500 nM.

With `COc1cnc(-c2ccc(N3CCN(C(=O)NC(C)C)CC3)cc2)c2[nH]cc(C(=O)C(=O)N3CCN(c4nnnn4-c4ccccn4)CC3)c12` [B-87], the EC50 was less than 500 nM.

Take `COc1ncc(-c2ncc(OC)c3c(C(=O)C(=O)N4CCN(c5nnnn5-c5ccccn5)CC4)c[nH]c23)s1` [B-88]: the EC50 was less than 500 nM.

For the compound `CCOc1ncc(-c2ncc(OC)c3c(C(=O)C(=O)N4CCN(c5nnnn5-c5ccccn5)CC4)c[nH]c23)s1` [B-89], the EC50 was less than 500 nM.

For `COc1cnc(-c2cnc(C)s2)c2[nH]cc(C(=O)C(=O)N3CCN(c4nnnn4-c4ccccn4)CC3)c12` [B-90], the EC50 was less than 500 nM.

`CCc1ncc(-c2ncc(OC)c3c(C(=O)C(=O)N4CCN(c5nnnn5-c5ccccn5)CC4)c[nH]c23)s1` [B-91]: the 50% effective concentration (EC50) is less than 500 nM.

In the case of `COc1cnc(Nc2ccncn2)c2[nH]cc(C(=O)C(=O)N3CCN(c4nnnn4-c4ccccn4)CC3)c12` [B-92], the EC50 is less than 500 nM.

Take `C[C@@H]1CN(c2nnnn2-c2ccccc2)C[C@H](C)N1C(=O)C(=O)c1c[nH]c2c(-n3ccnn3)ncc(F)c12` [C-1, 1-((2R,6S)-2,6-dimethyl-4-(1-phenyl-1H-tetrazol-5-yl)piperazin-1-yl)-2-(4-fluoro-7-(1H-1,2,3-triazol-1-yl)-1H-pyrrolo[2,3-c]pyridin-3-yl)ethane-1,2-dione]: the EC50 was less than 500 nM.

For the compound `COc1cnc(-n2cnc(C)n2)c2[nH]cc(C(=O)C(=O)N3CCN(c4ncccc4C#N)CC3)c12` [D-1], the EC50 was less than 500 nM.

Regarding `COc1cnc(-n2cnc(C)n2)c2[nH]cc(C(=O)C(=O)N3CCN(c4ncccc4I)CC3)c12` [D-2], the EC50 was less than 500 nM.

Regarding `COc1cnc(-n2cnc(C)n2)c2[nH]cc(C(=O)C(=O)N3CCN(c4ncccc4C)CC3)c12` [D-3], the EC50 was less than 500 nM.

With `N#Cc1cccnc1N1CCN(C(=O)C(=O)c2c[nH]c3c(-n4ccnn4)ncc(F)c23)CC1` [D-4], the EC50 was less than 500 nM.

In the case of `O=C(C(=O)N1CCN(c2ncccc2I)CC1)c1c[nH]c2c(-n3ccnn3)ncc(F)c12` [D-5], the EC50 was less than 500 nM.

In the case of `Cc1cccnc1N1CCN(C(=O)C(=O)c2c[nH]c3c(-n4ccnn4)ncc(F)c23)CC1` [D-6], the EC50 is less than 500 nM.

As to `COc1cnc(-n2cnc(C)n2)c2[nH]cc(C(=O)C(=O)N3CCN(C4=C(c5ccccc5)C(=O)c5ccccc54)CC3)c12` [D-7], the EC50 was less than 500 nM.

Take `CCOC(=O)c1cccnc1N1CCN(C(=O)C(=O)c2c[nH]c3c(-n4cnc(C)n4)ncc(OC)c23)CC1` [D-8]: the EC50 was less than 500 nM.

As to `COc1cnc(-n2cnc(C)n2)c2[nH]cc(C(=O)C(=O)N3CCN(c4nc5ccccc5nc4-n4nc(C)cc4C)CC3)c12` [D-9], the EC50 is more than 500 nM.

Consider `COc1cnc(-n2cnc(C)n2)c2[nH]cc(C(=O)C(=O)N3CCN(c4nc(C)nc5scc(-c6ccccc6)c45)C[C@H]3C)c12` [D-10], for which the EC50 is less than 500 nM.

Regarding `COc1cnc(-n2cnc(C)n2)c2[nH]cc(C(=O)C(=O)N3CCN(c4ncnc5cc(-c6ccccc6)sc45)C[C@H]3C)c12` [D-11], the EC50 was more than 500 nM.

With `COc1cnc(-n2cnc(C)n2)c2[nH]cc(C(=O)C(=O)N3CCN(c4ncccc4N4CC(C)(C)C4=O)C[C@H]3C)c12` [D-12], the EC50 was more than 500 nM.

As to `COc1cnc(-n2cnc(C)n2)c2[nH]cc(C(=O)C(=O)N3CCN(c4ncccc4C(=O)N4CCOCC4)C[C@H]3C)c12` [D-13], the EC50 is more than 500 nM.

Regarding `COc1cnc(-n2cnc(C)n2)c2[nH]cc(C(=O)C(=O)N3CCN(c4snnc4-c4ccccc4)C[C@H]3C)c12` [D-14], the EC50 was less than 500 nM.

Take `COc1cnc(-n2cnc(C)n2)c2[nH]cc(C(=O)C(=O)N3CCN(c4ncccc4-c4nc5ccccc5s4)CC3)c12` [D-15]: the EC50 is less than 500 nM.

Consider `COc1cnc(-n2cnc(C)n2)c2[nH]cc(C(=O)C(=O)N3CCN(c4ncccc4C(=O)NCc4ccccc4)CC3)c12` [D-16], for which the EC50 is more than 500 nM.

`CCOc1nccnc1N1CCN(C(=O)C(=O)c2c[nH]c3c(-n4cnc(C)n4)ncc(OC)c23)CC1` [D-17]: the EC50 was less than 500 nM.

`COc1cnc(-n2cnc(C)n2)c2[nH]cc(C(=O)C(=O)N3CCN(c4nsnc4Cl)CC3)c12` [D-20]: the EC50 is less than 500 nM.

For the compound `COc1cnc(-n2cnc(C)n2)c2[nH]cc(C(=O)C(=O)N3CCN(c4ncccc4C(=O)Nc4ccccc4)CC3)c12` [D-22], the EC50 was more than 500 nM.

For the compound `O=C1C(c2ccccc2)=C(N2CCN(C(=O)C(=O)c3c[nH]c4c(-n5ccnn5)ncc(F)c34)CC2)c2ccccc21` [D-23], the EC50 is less than 500 nM.

For the compound `CCOC(=O)c1cccnc1N1CCN(C(=O)C(=O)c2c[nH]c3c(-n4ccnn4)ncc(F)c23)CC1` [D-24], the concentration for a half-maximal effect (EC50) is less than 500 nM.

Take `Cc1nc(N2CCN(C(=O)C(=O)c3c[nH]c4c(-n5ccnn5)ncc(F)c34)[C@H](C)C2)c2c(-c3ccccc3)csc2n1` [D-26]: the EC50 was more than 500 nM.

Regarding `C[C@@H]1CN(c2ncnc3cc(-c4ccccc4)sc23)CCN1C(=O)C(=O)c1c[nH]c2c(-n3ccnn3)ncc(F)c12` [D-27], the EC50 is less than 500 nM.
